Reference: ChEMBL document CHEMBL4800731, “Data for DCP probe JNJ-65355394” (2021)

Tests used:
[1] = target: Voltage-gated inwardly rectifying potassium channel KCNH2 (Homo sapiens, UniProt Q12809); assay: hERG Cerep panel
[2] = target: T1, Muscarinic acetylcholine receptor M1 (Homo sapiens) (UniProt P11229); assay: hM1 Cerep panel
T1 sequence (whole entry): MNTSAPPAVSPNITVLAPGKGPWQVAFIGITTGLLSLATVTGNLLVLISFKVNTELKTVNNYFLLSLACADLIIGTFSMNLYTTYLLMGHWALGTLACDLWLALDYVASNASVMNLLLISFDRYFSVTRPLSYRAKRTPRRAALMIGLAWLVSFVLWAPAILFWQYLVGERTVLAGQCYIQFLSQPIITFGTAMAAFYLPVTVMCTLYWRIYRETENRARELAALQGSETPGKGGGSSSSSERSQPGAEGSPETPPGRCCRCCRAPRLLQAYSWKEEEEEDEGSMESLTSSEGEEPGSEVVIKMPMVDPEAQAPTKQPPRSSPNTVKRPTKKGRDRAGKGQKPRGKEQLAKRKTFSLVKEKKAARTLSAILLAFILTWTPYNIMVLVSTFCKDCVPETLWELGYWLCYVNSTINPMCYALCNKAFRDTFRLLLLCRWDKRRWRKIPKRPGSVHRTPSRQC

[3] = target: Kappa-type opioid receptor (Rattus norvegicus) (UniProt P34975); assay: rOP2 Cerep panel
Rattus norvegicus [4] = species on record: Rattus norvegicus; assay: rCaCH (nitrendipine) Cerep panel
[5] = target: C-X-C chemokine receptor type 2 (Homo sapiens) (UniProt P25025); assay: hBCXCR2 Cerep panel
[6] = target: 5-hydroxytryptamine receptor 2B (Homo sapiens) (UniProt P41595); assay: h5HT2B Cerep panel
Sequence of 5-hydroxytryptamine receptor 2B (Homo sapiens) (P41595 whole entry): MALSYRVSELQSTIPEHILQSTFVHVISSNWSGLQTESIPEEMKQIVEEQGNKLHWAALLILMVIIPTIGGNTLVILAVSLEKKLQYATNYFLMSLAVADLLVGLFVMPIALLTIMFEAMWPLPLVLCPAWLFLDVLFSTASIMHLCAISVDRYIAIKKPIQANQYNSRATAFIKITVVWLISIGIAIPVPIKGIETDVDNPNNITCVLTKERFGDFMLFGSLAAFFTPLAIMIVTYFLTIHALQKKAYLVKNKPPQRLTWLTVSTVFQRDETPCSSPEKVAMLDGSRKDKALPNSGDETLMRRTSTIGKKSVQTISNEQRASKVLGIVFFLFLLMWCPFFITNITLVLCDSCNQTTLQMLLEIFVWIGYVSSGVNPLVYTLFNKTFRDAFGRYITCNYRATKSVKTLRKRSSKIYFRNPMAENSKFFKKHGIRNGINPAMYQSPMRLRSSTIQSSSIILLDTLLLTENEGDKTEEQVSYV

[7] = target: Alpha-2A adrenergic receptor (Rattus norvegicus) (UniProt P22909); assay: rAa2 Cerep panel
Rattus norvegicus [8] = species on record: Rattus norvegicus; assay: rGABA Cerep panel
Rattus norvegicus [9] = species on record: Rattus norvegicus; assay: rNaCH Cerep panel
[10] = target: Histamine H1 receptor (Homo sapiens) (UniProt P35367); assay: hH1 Cerep panel
[11] = target: Type-1 angiotensin II receptor (Homo sapiens) (UniProt P30556); assay: hAT1 Cerep panel
Sequence of Type-1 angiotensin II receptor (Homo sapiens) (P30556 whole entry): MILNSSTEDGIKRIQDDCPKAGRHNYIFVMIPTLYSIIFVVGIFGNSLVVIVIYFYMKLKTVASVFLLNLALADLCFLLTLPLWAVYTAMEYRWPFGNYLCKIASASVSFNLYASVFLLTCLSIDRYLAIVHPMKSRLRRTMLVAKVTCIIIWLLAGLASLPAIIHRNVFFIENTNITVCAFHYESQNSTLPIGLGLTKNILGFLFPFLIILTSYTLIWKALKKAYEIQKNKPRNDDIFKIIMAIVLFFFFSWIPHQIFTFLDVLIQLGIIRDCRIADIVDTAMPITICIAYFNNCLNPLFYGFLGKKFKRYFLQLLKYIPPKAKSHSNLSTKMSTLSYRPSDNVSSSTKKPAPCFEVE

Rattus norvegicus [12] = species on record: Rattus norvegicus; assay: rCaCH (D888) Cerep panel
[13] = target: Endothelin-1 receptor (Homo sapiens) (UniProt P25101); assay: hETA Cerep panel
Sequence of Endothelin-1 receptor (Homo sapiens) (P25101 whole entry): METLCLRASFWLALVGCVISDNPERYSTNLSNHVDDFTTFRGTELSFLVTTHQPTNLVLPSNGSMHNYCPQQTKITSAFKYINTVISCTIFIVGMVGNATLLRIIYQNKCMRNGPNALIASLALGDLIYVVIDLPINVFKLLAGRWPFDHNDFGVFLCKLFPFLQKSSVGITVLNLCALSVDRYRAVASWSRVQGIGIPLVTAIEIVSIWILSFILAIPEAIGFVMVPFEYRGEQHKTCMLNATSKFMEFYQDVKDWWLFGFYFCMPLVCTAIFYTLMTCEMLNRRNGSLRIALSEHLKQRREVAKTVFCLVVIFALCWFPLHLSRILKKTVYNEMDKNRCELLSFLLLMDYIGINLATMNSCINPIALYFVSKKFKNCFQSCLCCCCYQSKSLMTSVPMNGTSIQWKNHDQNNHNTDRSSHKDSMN

[14] = target: 5-hydroxytryptamine receptor 1B (Rattus norvegicus) (UniProt P28564); assay: r5HT1B Cerep panel
Sequence of 5-hydroxytryptamine receptor 1B (Rattus norvegicus) (P28564 whole entry): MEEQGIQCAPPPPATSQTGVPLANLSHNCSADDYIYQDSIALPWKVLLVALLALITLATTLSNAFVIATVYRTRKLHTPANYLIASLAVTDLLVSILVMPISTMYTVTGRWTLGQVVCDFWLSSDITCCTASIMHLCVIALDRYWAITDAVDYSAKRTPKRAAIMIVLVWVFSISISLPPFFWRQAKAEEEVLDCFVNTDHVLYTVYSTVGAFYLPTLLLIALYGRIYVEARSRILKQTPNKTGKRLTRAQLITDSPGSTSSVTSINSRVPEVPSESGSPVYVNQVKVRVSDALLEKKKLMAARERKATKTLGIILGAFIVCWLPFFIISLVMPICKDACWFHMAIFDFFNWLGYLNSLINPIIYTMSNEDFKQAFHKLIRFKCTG

[15] = target: T2, Alpha-1B adrenergic receptor (Homo sapiens) (UniProt P35368); assay: hAb1 Cerep panel
T2 sequence (whole entry): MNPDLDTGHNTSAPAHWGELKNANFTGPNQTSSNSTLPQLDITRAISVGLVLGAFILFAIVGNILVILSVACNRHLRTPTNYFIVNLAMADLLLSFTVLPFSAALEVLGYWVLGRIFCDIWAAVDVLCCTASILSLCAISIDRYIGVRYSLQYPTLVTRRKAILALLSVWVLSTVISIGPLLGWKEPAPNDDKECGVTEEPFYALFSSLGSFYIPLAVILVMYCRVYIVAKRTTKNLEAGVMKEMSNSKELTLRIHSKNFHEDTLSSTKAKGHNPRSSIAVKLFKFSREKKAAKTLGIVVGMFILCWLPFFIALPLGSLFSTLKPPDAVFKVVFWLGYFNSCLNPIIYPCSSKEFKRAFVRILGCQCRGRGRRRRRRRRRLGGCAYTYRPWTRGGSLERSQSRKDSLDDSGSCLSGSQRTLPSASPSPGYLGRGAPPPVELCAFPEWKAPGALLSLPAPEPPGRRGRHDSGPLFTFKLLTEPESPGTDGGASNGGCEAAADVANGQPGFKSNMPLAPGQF

[16] = target: Neuropeptide Y receptor type 2 (Homo sapiens) (UniProt P49146); assay: hNPY2 Cerep panel
[17] = target: Sodium-dependent serotonin transporter (Homo sapiens, UniProt P31645); assay: h5HTT Cerep panel
[18] = target: Substance-K receptor (Homo sapiens) (UniProt P21452); assay: hNK2 Cerep panel
[19] = target: Somatostatin receptor (Mus musculus) (UniProt P30935+O08858+P30875+P30873+P49660); assay: mSST Cerep panel; format: protein assay
Sequence of Somatostatin receptor (Mus musculus) (P30935 whole entry): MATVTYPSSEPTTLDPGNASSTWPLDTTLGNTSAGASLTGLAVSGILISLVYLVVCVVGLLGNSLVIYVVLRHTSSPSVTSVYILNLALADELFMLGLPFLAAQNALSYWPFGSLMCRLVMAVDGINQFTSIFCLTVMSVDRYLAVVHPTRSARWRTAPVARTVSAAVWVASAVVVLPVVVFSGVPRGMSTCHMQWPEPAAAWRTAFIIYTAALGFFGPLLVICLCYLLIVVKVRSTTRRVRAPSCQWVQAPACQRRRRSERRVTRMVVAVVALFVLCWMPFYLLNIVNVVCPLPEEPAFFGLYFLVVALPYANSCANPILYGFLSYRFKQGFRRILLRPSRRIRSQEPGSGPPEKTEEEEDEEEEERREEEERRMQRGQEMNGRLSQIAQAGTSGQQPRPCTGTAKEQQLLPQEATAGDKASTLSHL
Sequence of Somatostatin receptor (Mus musculus) (O08858 whole entry): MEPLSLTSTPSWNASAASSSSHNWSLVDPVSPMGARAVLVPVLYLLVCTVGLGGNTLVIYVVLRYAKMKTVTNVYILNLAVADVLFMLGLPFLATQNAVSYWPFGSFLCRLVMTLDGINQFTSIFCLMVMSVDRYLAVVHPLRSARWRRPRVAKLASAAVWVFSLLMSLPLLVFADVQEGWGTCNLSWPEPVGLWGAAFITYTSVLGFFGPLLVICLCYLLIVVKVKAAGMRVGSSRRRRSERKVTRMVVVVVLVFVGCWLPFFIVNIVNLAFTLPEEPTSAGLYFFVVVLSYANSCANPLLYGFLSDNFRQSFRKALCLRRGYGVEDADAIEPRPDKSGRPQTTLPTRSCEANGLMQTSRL
Sequence of Somatostatin receptor (Mus musculus) (P30875 whole entry): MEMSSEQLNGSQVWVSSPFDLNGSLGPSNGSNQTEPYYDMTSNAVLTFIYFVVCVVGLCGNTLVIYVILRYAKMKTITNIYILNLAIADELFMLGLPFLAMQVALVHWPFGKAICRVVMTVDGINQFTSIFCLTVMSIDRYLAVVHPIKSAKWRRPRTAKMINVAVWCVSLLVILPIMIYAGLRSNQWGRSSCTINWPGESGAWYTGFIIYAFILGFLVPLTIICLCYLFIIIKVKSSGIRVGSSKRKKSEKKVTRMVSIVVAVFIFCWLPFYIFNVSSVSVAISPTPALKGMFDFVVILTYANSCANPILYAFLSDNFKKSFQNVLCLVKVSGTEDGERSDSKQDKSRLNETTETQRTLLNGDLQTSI
Sequence of Somatostatin receptor (Mus musculus) (P30873 whole entry): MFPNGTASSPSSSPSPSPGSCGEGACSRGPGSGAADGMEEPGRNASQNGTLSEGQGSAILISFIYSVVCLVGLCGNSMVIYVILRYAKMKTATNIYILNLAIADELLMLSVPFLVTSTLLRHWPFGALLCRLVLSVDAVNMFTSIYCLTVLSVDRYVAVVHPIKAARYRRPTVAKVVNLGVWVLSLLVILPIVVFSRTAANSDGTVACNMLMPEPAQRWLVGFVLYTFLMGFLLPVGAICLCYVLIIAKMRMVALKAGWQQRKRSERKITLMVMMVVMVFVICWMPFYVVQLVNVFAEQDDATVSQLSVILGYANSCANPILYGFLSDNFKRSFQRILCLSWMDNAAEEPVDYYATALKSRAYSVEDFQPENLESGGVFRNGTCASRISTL
Sequence of Somatostatin receptor (Mus musculus) (P49660 with tags, fused parts or gaps): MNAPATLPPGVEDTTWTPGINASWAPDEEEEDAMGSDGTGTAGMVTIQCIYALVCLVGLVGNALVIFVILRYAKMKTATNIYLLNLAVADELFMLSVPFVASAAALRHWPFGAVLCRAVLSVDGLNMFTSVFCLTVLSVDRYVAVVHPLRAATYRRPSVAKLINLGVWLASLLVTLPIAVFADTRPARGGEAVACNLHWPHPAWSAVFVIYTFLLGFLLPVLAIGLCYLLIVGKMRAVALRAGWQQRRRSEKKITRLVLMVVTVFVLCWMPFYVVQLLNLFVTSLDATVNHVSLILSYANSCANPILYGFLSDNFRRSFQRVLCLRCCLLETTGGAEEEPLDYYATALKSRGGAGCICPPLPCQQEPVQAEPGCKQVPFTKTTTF

[20] = target: Mu-type opioid receptor (Homo sapiens) (UniProt P35372); assay: hOP3 Cerep panel
[21] = target: T3, Muscarinic acetylcholine receptor M2 (Homo sapiens) (UniProt P08172); assay: hM2 Cerep panel
T3 sequence (whole entry): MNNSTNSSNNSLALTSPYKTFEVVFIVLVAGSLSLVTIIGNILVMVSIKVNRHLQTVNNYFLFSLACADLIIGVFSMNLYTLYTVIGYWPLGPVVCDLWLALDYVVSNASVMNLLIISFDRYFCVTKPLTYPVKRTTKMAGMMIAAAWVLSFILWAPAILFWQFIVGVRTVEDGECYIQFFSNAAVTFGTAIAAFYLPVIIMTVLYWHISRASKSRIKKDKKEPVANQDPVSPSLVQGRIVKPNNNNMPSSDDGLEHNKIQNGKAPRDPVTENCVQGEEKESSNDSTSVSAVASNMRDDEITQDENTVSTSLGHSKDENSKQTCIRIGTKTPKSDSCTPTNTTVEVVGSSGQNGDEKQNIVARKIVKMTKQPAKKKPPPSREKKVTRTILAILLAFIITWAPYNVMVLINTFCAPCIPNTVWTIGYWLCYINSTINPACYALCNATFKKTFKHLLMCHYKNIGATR

[22] = target: Adenosine receptor A3 (Homo sapiens) (UniProt P0DMS8); assay: hA3 Cerep panel
Sequence of Adenosine receptor A3 (Homo sapiens) (P0DMS8 whole entry): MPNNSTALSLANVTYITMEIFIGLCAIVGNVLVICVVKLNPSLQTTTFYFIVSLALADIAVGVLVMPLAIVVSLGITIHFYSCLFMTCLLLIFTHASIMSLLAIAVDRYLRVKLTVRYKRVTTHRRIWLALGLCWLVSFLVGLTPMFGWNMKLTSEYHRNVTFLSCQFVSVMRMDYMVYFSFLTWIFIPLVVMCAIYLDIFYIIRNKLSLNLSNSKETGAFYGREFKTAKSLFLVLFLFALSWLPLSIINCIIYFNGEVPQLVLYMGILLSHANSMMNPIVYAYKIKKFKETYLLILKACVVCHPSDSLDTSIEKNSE

[23] = target: B2 bradykinin receptor (Homo sapiens) (UniProt P30411); assay: hBK2 Cerep panel
[24] = target: Sodium-dependent noradrenaline transporter (Homo sapiens) (UniProt P23975); assay: hNET Cerep panel
[25] = target: C-C chemokine receptor type 1 (Homo sapiens) (UniProt P32246); assay: hCCR1 Cerep panel
Sequence of C-C chemokine receptor type 1 (Homo sapiens) (P32246 whole entry): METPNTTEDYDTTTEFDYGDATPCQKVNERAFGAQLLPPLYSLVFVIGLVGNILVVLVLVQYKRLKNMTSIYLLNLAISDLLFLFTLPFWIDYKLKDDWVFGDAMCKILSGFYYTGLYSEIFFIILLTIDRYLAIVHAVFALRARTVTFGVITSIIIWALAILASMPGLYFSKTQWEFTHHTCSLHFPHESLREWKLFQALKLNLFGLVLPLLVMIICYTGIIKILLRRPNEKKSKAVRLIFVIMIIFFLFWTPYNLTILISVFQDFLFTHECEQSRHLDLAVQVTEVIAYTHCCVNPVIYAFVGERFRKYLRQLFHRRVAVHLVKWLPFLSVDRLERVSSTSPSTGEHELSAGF

[26] = target: D(3) dopamine receptor (Homo sapiens) (UniProt P35462); conditions: Compound concentration 10.0 uM
Sequence of D(3) dopamine receptor (Homo sapiens) (P35462 whole entry): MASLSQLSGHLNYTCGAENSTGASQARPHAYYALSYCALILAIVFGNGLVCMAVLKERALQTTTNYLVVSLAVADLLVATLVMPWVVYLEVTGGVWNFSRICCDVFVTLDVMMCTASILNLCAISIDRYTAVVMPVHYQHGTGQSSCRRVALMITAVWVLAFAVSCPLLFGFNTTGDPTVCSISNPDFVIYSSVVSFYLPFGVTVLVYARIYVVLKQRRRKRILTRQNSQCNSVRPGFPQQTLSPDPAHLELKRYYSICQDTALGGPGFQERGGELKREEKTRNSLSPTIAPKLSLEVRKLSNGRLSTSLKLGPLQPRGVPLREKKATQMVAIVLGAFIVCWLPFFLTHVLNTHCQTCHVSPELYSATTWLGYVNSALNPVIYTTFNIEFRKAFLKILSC

Rattus norvegicus [27] = species on record: Rattus norvegicus; assay: rKCH Cerep panel
[28] = target: Adenosine receptor A1 (Homo sapiens) (UniProt P30542); assay: hA1 Cerep panel
[29] = target: Beta-3 adrenergic receptor (Homo sapiens) (UniProt P13945); conditions: Compound concentration 10.0 uM
[30] = target: Sigma intracellular receptor 2 (Homo sapiens, UniProt Q5BJF2); assay: GPCRScan assay: inhibition of Sigma 2; parameters: radioligand conc. used [nm] 5.0, parental cells HEKT
Sequence of Sigma intracellular receptor 2 (Q5BJF2 whole entry): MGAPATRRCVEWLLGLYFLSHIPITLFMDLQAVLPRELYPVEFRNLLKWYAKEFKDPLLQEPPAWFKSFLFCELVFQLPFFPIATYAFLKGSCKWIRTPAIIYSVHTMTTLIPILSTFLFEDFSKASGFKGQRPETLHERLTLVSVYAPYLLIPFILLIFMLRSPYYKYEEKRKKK

In the case of CC(=O)Nc1ncc(CN2CCC[C@H](Cc3cc(C)nc(C)c3)C2)s1 [JNJ-65355394], the effect [1] is reported as 10%, the effect [2] is reported as 32.5% and the effect [3] is reported as 77.8%. It also gave an effect (Rattus norvegicus [4]) of 14%, an effect [5] of 0.85% and an effect [6] of 6.3%. The effect [7] was 69%, the effect (Rattus norvegicus [8]) was -9.8% and the effect (Rattus norvegicus [9]) was 1.6%. The effect [10] was 5.7%, the effect [11] was -3.05% and the effect (Rattus norvegicus [12]) was 4.9%. It also gave an effect [13] of 3.6%, an effect [14] of -9.65% and an effect [15] of 11.2%. For the same molecule, the effect [16] was -2.7%, the effect [17] was -7.05% and the effect [18] was 4.5%. For the same molecule, the effect [19] was 4.2%, the effect [20] was 55.4% and the effect [21] was 25.4%. For the same molecule, the effect [22] was 16%, the effect [23] was 10.8% and the effect [24] was 5.75%. The effect [25] was -1.85%, the inhibition [26] was 10.3% and the effect (Rattus norvegicus [27]) was 1%. For the same molecule, the effect [28] was -13.2%.

CC(=O)Nc1nc(CN2CCC[C@H](Cc3cc(C)nc(C)c3)C2)cs1 [JNJ-73924149] gave an inhibition [29] of -8.59%, a Ki ([30]; read-out: Ki) of 1400 nM and a Ki ([30]; read-out: pKi (converted)) of 1350 nM.
